# Reference: patent US6737383B1, “Herbicidal oxadiazolidines” (priority 1999, dated 2004)
# Assays:
# [1] = tested on: crabgrass; assay: Test B pre/postemergence crabgrass; format: in vivo, Digitaria sanguinalis
# How it was run: (§1)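 Response is a visual 0-to-10 score relative to untreated plants, where 0 means no effect and 10 means complete control, taken twelve to sixteen days after application. Treatments went onto soil at planting and onto foliage of 1- to 4-leaf plants, using a surfactant-containing non-phytotoxic solvent.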
# [2] = tested on: blackgrass; assay: Test B pre/postemergence blackgrass; format: in vivo, Alopecurus myosuroides
# How it was run: as §1
# [3] = tested on: sugar beet; assay: Test B pre/postemergence sugar beet; format: in vivo, Beta vulgaris
# How it was run: as §1
# [4] = tested on: purple nutsedge; assay: Test B pre/postemergence purple nutsedge; format: in vivo, Cyperus rotundus
# How it was run: as §1
# [5] = tested on: smallflower flatsedge; assay: Test B flood test smallflower flatsedge; format: in vivo, Cyperus difformis
# How it was run: (§2)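 Plants were grown to the 2-leaf stage before treatment with test chemical, then held in a greenhouse for twelve to sixteen days. Injury was visually rated against untreated controls on a 0–10 scale, where 0 is no effect and 10 is complete control.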
# [6] = tested on: surinam grass; assay: Test B pre/postemergence surinam grass; format: in vivo, Brachiaria decumbens
# How it was run: as §1
# [7] = tested on: velvetleaf; assay: Test B pre/postemergence velvetleaf; format: in vivo, Abutilon theophrasti
# How it was run: as §1
# [8] = tested on: duck salad; assay: Test B flood test duck salad; format: in vivo, Heteranthera limosa
# How it was run: as §2
# [9] = tested on: cocklebur; assay: Test B pre/postemergence cocklebur; format: in vivo, Xanthium strumarium
# How it was run: as §1
# [10] = tested on: bedstraw; assay: Test B pre/postemergence bedstraw; format: in vivo, Galium aparine
# How it was run: as §1
# [11] = tested on: wild oat; assay: Test B pre/postemergence wild oat; format: in vivo, Avena fatua
# How it was run: as §1
# [12] = tested on: rice; assay: Test B flood test rice; format: in vivo, Oryza sativa
# How it was run: as §2
# [13] = tested on: corn; assay: Test B pre/postemergence corn; format: in vivo, Zea mays
# How it was run: as §1
# [14] = tested on: bamyardgrass; assay: Test B flood test barnyardgrass; format: in vivo, Echinochloa crus-galli
# How it was run: as §2
# [15] = tested on: wheat; assay: Test B pre/postemergence wheat; format: in vivo, Triticum aestivum
# How it was run: as §1
# [16] = tested on: soybean; assay: Test B pre/postemergence soybean; format: in vivo, Glycine max
# How it was run: as §1
# [17] = Postemergence, Rate 125 g/ha, scale of 0 to 10 where 0 is no effect and 10 is complete control
# [18] = Preemergence, Rate 62 g/ha, scale of 0 to 10 where 0 is no effect and 10 is complete control
# [19] = Preemergence, Rate 125 g/ha, 0 is no effect, 10 is complete control
# [20] = Preemergence, Rate 250 g/ha, scale 0 to 10, 0 is no effect, 10 is complete control
# [21] = Preemergence, Rate 500 g/ha, scale 0 to 10 (0 no effect, 10 complete control)
# [22] = Rate 62 g/ha, Postemergence, scale of 0 to 10 where 0 is no effect and 10 is complete control
# [23] = Rate 250 g/ha, Postemergence, scale 0 to 10, 0 is no effect, 10 is complete control
# [24] = Rate 500 g/ha, Postemergence, scale 0 to 10
# [25] = Postemergence (flood test species), Rate 125 g/ha, scale of 0 to 10 where 0 is no effect and 10 is complete control
# [26] = Rate 62 g/ha, Postemergence section, flood test species, scale of 0 to 10 where 0 is no effect and 10 is complete control
# [27] = Rate 250 g/ha, Postemergence (flood test), scale 0 to 10, 0 is no effect, 10 is complete control
# [28] = Rate 500 g/ha, listed under Postemergence (flood test species), scale 0 to 10
smiles,measurement,setting,value
Cc1ccccc1-n1c(=O)on(C(=O)N(c2cccc(F)c2F)C(C)C)c1=O [Compound 171],Crabgrass plant response rating,[1]; [17],0
same,Crabgrass plant response rating,[1]; [18],2
same,Crabgrass plant response rating (0 to 10 scale),[1]; [19],7
same,Crabgrass plant response rating,[1]; [20],10
same,Crabgrass plant response rating,[1]; [21],10
same,Crabgrass plant response rating,[1]; [22],0
same,"Plant response rating, Crabgrass",[1]; [23],2
same,Crabgrass plant response rating,[1]; [24],7
same,Blackgrass plant response rating,[2]; [17],0
same,Blackgrass plant response rating,[2]; [18],0
same,Blackgrass plant response rating (0 to 10 scale),[2]; [19],0
same,Blackgrass plant response rating,[2]; [20],0
same,Blackgrass plant response rating,[2]; [21],2
same,Blackgrass plant response rating,[2]; [22],0
same,"Plant response rating, Blackgrass",[2]; [23],0
same,Blackgrass plant response rating,[2]; [24],0
same,Sugarbeets plant response rating,[3]; [17],0
same,Sugarbeets plant response rating,[3]; [18],0
same,Sugarbeets plant response rating (0 to 10 scale),[3]; [19],0
same,Sugarbeets plant response rating,[3]; [20],0
same,Sugarbeets plant response rating,[3]; [21],0
same,Sugarbeets plant response rating,[3]; [22],0
same,"Plant response rating, Sugarbeets",[3]; [23],2
same,Sugarbeets plant response rating,[3]; [24],2
same,Nutsedge plant response rating,[4]; [17],0
same,Nutsedge plant response rating,[4]; [18],0
same,Nutsedge plant response rating (0 to 10 scale),[4]; [19],0
same,Nutsedge plant response rating,[4]; [20],0
same,Nutsedge plant response rating,[4]; [21],0
same,Nutsedge plant response rating,[4]; [22],0
same,"Plant response rating, Nutsedge",[4]; [23],0
same,Nutsedge plant response rating,[4]; [24],0
same,S. Flatsedge plant response rating,[5]; [25],0
same,S. Flatsedge plant response rating,[5]; [26],0
same,"Plant response rating, S. Flatsedge",[5]; [27],0
same,S. Flatsedge plant response rating,[5]; [28],0
same,B. signalgrass plant response rating,[6]; [17],0
same,B. signalgrass plant response rating,[6]; [18],0
same,B. signalgrass plant response rating (0 to 10 scale),[6]; [19],1
same,B. signalgrass plant response rating,[6]; [20],3
same,B. signalgrass plant response rating,[6]; [21],5
same,B. signalgrass plant response rating,[6]; [22],0
same,"Plant response rating, B. signalgrass",[6]; [23],0
same,B. signalgrass plant response rating,"[6]; Rate 500 g/ha, Postemergence, scale 0 to 10, 0 no effect, 10 complete control",0
same,Velvetleaf plant response rating,[7]; [18],0
same,Velvetleaf plant response rating (0 to 10 scale),[7]; [19],0
same,Velvetleaf plant response rating,[7]; [20],0
same,Velvetleaf plant response rating,[7]; [21],0
same,"Plant response rating, Velvetleaf",[7]; [23],0
same,Velvetleaf plant response rating,[7]; [24],3
same,Ducksalad plant response rating,[8]; [25],0
same,Ducksalad plant response rating,[8]; [26],0
same,"Plant response rating, Ducksalad",[8]; [27],0
same,Ducksalad plant response rating,[8]; [28],0
same,Cocklebur plant response rating,[9]; [17],0
same,Cocklebur plant response rating,[9]; [18],0
same,Cocklebur plant response rating (0 to 10 scale),[9]; [19],0
same,Cocklebur plant response rating,[9]; [20],0
same,Cocklebur plant response rating,[9]; [21],0
same,Cocklebur plant response rating,[9]; [22],0
same,"Plant response rating, Cocklebur",[9]; [23],3
same,Cocklebur plant response rating,[9]; [24],3
same,Bedstraw plant response rating,[10]; [17],7
same,Bedstraw plant response rating,[10]; [18],0
same,Bedstraw plant response rating (0 to 10 scale),[10]; [19],0
same,Bedstraw plant response rating,[10]; [20],0
same,Bedstraw plant response rating,[10]; [21],0
same,"Plant response rating, Bedstraw",[10]; [23],8
same,Wild oats plant response rating,[11]; [18],0
same,Wild oats plant response rating (0 to 10 scale),[11]; [19],2
same,Wild oats plant response rating,[11]; [20],4
same,Wild oats plant response rating,[11]; [21],5
same,"Plant response rating, Wild oats",[11]; [23],0
same,Wild oats plant response rating,[11]; [24],0
same,Rice plant response rating,[12]; [25],0
same,Rice plant response rating,[12]; [26],0
same,"Plant response rating, Rice",[12]; [27],0
same,Rice plant response rating,[12]; [28],0
same,Corn plant response rating,[13]; [17],0
same,Corn plant response rating,[13]; [18],0
same,Corn plant response rating (0 to 10 scale),[13]; [19],0
same,Corn plant response rating,[13]; [20],0
same,Corn plant response rating,[13]; [21],0
same,Corn plant response rating,[13]; [22],0
same,"Plant response rating, Corn",[13]; [23],0
same,Corn plant response rating,[13]; [24],0
same,Barnyardgrass plant response rating,[14]; [25],0
same,Barnyardgrass plant response rating,[14]; [26],0
same,"Plant response rating, Barnyardgrass",[14]; [27],0
same,Barnyardgrass plant response rating,[14]; [28],0
same,Wheat plant response rating,[15]; [18],0
same,Wheat plant response rating (0 to 10 scale),[15]; [19],0
same,Wheat plant response rating,[15]; [20],0
same,Wheat plant response rating,[15]; [21],0
same,"Plant response rating, Wheat",[15]; [23],0
same,Wheat plant response rating,[15]; [24],0
same,Soybean plant response rating,[16]; [17],1
same,Soybean plant response rating,[16]; [18],0
same,Soybean plant response rating (0 to 10 scale),[16]; [19],0
same,Soybean plant response rating,[16]; [20],0
same,Soybean plant response rating,[16]; [21],0
same,Soybean plant response rating,[16]; [22],1
same,"Plant response rating, Soybean",[16]; [23],1
same,Soybean plant response rating,[16]; [24],3
